# Measured values as given in US9815863B2, “Hydrogen bond forming fluoro ketolides for treating diseases” (priority 2010, dated 2017).
# Columns and labels:
# [1] = biological target: S. aureus ribosome; assay: Competition binding with [14C]erythromycin, S. aureus ribosome
# Experimental: Competition binding studies. Binding of erythromycin to E. coli and S. aureus ribosomes and competition experiments were done by size-exclusion chromatography using Bio-Gel P30 spin columns as described in Xiong, L., Y. Korkhin, and A. S. Mankin. 2005. Binding site of the bridged macrolides in the Escherichia coli ribosome. Antimicrob. Agents Chemother. 49:281-288.
# For competition binding experiments, ribosomes (100 nM) were preincubated with 100 nM [^14C]erythromycin (48.8 mCi/mmol; PerkinElmer) in 160 μL of buffer A at 37° C. for 15 min, then at 20° C. for 10 min. Competing antibiotics were added at varying concentrations, and the binding mixture was incubated at 20° C. for 100 min. The reactions were loaded onto the spin columns and the amount of ribosome-associated radioactivity was measured as described above. Binding data were analyzed using Prism software (GraphPad). Cell free transcription-translation assays.
# [2] = test system: Streptococcus pneumoniae Pen^S, Tel^S, Mac^S; assay: MIC against streptococci clinical isolates (Table 3); format: cell-based; conditions: Streptococcus pneumoniae, 10 strains
# [3] = test system: Streptococcus pyogenes Tel^S, Mac^S; assay: as above; format: cell-based; conditions: Streptococcus pyogenes, 10 strains
# [4] = test system: 2058-dimethylated ribosomes isolated from the S. aureus N315 strain; assay: RNA footprinting of A2058-dimethylated (Erm-modified) ribosomes from S. aureus N315; format: binding; conditions: S. aureus N315 ribosomes dimethylated at A2058, drugs at 100 μM
# Experimental: Ribosome chemical probing. rRNA probing was done following standard protocols (Merryman, C., and H. F. Noller. 1998. Footprinting and modification-interference analysis of binding sites on RNA, p. 237-253. In C. W. J. Smith (ed.), RNA:Protein Interactions, A Practical Approach. Oxford University Press, Oxford), with minor modifications. Briefly, 200 nM ribosomes were incubated with 100 μM antibiotic in 50 μL of buffer B (80 mM HEPES-KOH [pH 7.8], 20 mM MgCl2, 100 mM NH4Cl, 1.5 mM dithiothreitol) for 10 min at 37° C., followed by 10 min at 20° C. Modifying reagents (dimethyl sulfate [DMS], kethoxal, or 1-cyclohexyl-3-(2-morpholinoethyl)carbodiimide metho p-toluene sulfonate [CMCT]) were added and the modification reaction was carried out for 10 min at 37° C. After quenching the reaction and ethanol precipitation, rRNA was extracted and the distribution of modified nucleotides was assessed by primer extension.
# Interaction of CEM-101 with S. aureus ribosomes dimethylated at A2058 by Erm-methyltransferase. Erm-methyltransferase modifies A2058 in 23S rRNA by consecutively adding two methyl groups to the exocyclic amino group of the adenine base. Such modification completely blocks binding of erythromycin and similar macrolides, whereas its effect on binding of ketolides is less clear (Douthwaite, S., L. H. Hansen, and P. Mauvais. 2000. Macrolide-ketolide inhibition of MLS-resistant ribosomes is improved by alternative drug interaction with domain R of 23S rRNA. Mol. Microbiol. 36:183-193; Liu, M., and S. Douthwaite. 2002. Activity of the ketolide telithromycin is refractory to Erm monomethylation of bacterial rRNA. Antimicrob. Agents Chemother. 46:1629-1633). Therefore, interaction of CEM-101 with the ribosomes isolated from a clinical S. aureus strain N315, which carries five chromosomal copies of constitutively expressed ermA gene present in the Tn554 transposon (Kuroda, M., T. Ohta, I. Uchiyama, T. Baba, H. Yuzawa, I. Kobayashi, L. Cui, A. Oguchi, K. Aoki, Y. Nagai, J. Lian, T. Ito, M. Kanamori, H. Matsumaru, A. Maruyama, H. Murakami, A. Hosoyama, Y. Mizutani-Ui, N. K. Takahashi, T. Sawano, R. Inoue, C. Kaito, K. Sekimizu, H. Hirakawa, S. Kuhara, S. Goto, J. Yabuzaki, M. Kanehisa, A. Yamashita, K. Oshima, K. Furuya, C. Yoshino, T. Shiba, M. Hattori, N. Ogasawara, H. Hayashi, and K. Hiramatsu. 2001. Whole genome sequencing of meticillin-resistant Staphylococcus aureacs. Lancet 357:1225-1240) was investigated.
# Footprinting analysis was used to test interactions of ketolides (CEM-101 and telithromycin) and cladinose-containing macrolides (CEM-103 and erythromycin) with the 2058-dimethylated ribosomes isolated from the S. aureus N315 strain. Ribosomes were incubated with the drugs (present at 100 μM concentration) and probed by DMS modification. Because dimethylated A2058 blocks progression of reverse transcriptase along the RNA template, a strong reverse transcriptase stop is observed at A2058 on the primer extension gel (Vester, B., and S. Douthwaite. 1994. Domain V of 23S rRNA contains all the structural elements necessary for recognition by the ErmE methyltransferase. J. Bacteriol. 176:6999-7004; Zhong, P., Z. Cao, R. Hammond, Y. Chen, J. Beyer, V. D. Shortridge, L. Y. Phan, S. Pratt, J. Capobianco, K. A. Reich, R. K. Flamm, Y. S. Or, and L. Katz. 1999. Induction of ribosome methylation in MLS-resistant Streptococcus pneumoniae by macrolides and ketolides. Microb. Drug Resist. 5:183-188). Therefore, it is impossible to use footprinting to evaluate interactions of macrolides with this position in the S. aureus N315 ribosomes. […]
# [5] = test system: eukaryotic ribosome (rabbit reticulocyte lysate); assay: Rabbit reticulocyte cell-free translation system, luciferase synthesis; format: biochemical; conditions: concentrations up to 50 μM
# Experimental: The rabbit reticulocyte cell-free translation system (Promega, Cat. No. L4540) was used to assay the effect of the drugs on activity of the eukaryotic ribosome. […] Polyadenylated luciferase mRNA (Promega, Cat. No. L4561) was denatured before use by incubating the RNA at 65° C. for 3 min and then placed on ice. Translation mix (2 μL) was mixed with the rabbit reticulocyte lysate to start the reaction. The translation mix contained 0.3 μL of denatured luciferase mRNA (0.3 μg), 0.2 μL of 1 mM amino acid mixture, 0.2 μL of ribonuclease inhibitor (8U, Roche, Cat. No. 03 335 399001), 0.4 μL of 2.5 M potassium chloride, and 0.9 μL of water. Reactions were incubated at 30° C. for 30 min and then placed on ice.
structure (smiles),measurement,setting,value
CC[C@H]1OC(=O)[C@@](C)(F)C(=O)[C@H](C)[C@@H](O[C@@H]2O[C@H](C)C[C@H](N(C)C)[C@H]2O)[C@](C)(OC)C[C@@H](C)C(=O)[C@H](C)[C@H]2N(CCCCn3cc(-c4cccc(N)c4)nn3)C(=O)O[C@]12C [CEM-101],Kd,"[1]; S. aureus ribosome, resulting from competition IC50",12 ± 1 nM
same,IC50,"[1]; competition with 100 nM [14C]erythromycin, 100 nM S. aureus ribosomes, read-out: IC50 of displacement of erythromycin",117 ± 3 nM
same,MIC50,[2]; read-out: MIC50,0.03 µg/mL
same,MIC90,[2]; read-out: MIC90,0.03 µg/mL
same,MIC50,[3]; read-out: MIC50,0.03 µg/mL
same,MIC90,[3]; read-out: MIC90,0.03 µg/mL
same,Protection of A2059 from DMS modification (binding to Erm-modified ribosome),[4],protection of A2059 from DMS modification
same,Protection of G2505 from kethoxal modification,[4],partially protected
same,Protection of U2609 from modification with CMCT,[4],fully protected
same,Effect on the synthesis of luciferase,[5],no effect
